Where “and” joins values, the source holds several entries; their conditions need not be identical. Equal values may be shown once.
Tested on: Trypanosoma rhodesiense
Assay: In vivo trypanocidal activity in infected mice (protocol based on Rane et al.)
Set-up: Activity at dosage, value in parentheses (increase in survival): unit not given here
Method: The compounds of the present invention were evaluated biologically in vivo with groups of 5 mice at various dose levels. Unless otherwise indicated, the data are for subcutaneous administration. Dose levels marked with an asterisk are for peritoneal administration in a HEC+T medium. In addition, Table 2 present results of peritoneal administration with substituted quanylhydrazones. The biological evaluation was done according to a standard protocol based on the method described by Rane et al., Amer. J. Trop. Med Hyg. 25:395 (1976). […]

[1] = 106* mg/kg, peritoneal in HEC+T medium (Table I)
[2] = 424* mg/kg, peritoneal in HEC+T medium (Table I)

For `CC(=O)Nc1ccc(-c2cn3ccccc3[n+]2C)cc1` [BJ36718], the Increase in survival (53 mg/kg, subcutaneous) was 8.0 days, the “Trypanocidal activity, cures” value (53 mg/kg, subcutaneous) was 4/5 and the Increase in survival (106 mg/kg, subcutaneous) was 4.4 days. The “Trypanocidal activity, cures” value (212 mg/kg, subcutaneous) was 3/5 and 4/5, the Increase in survival [1] was 7.0 days and the “Trypanocidal activity, cures” value [1] was 7/10. The Increase in survival [2] was 11.0 days and the “Trypanocidal activity, cures” value [2] was 8/10.

In the case of `CC(=O)Nc1ccc(-c2cn3c([n+]2C)CCCC3)cc1` [BJ51911], the Increase in survival (26.5 mg/kg, subcutaneous) is reported as 1.2 days, the “Trypanocidal activity, cures” value (26.5 mg/kg, subcutaneous) is reported as 1/10 and the Increase in survival (53 mg/kg, subcutaneous) is reported as 6.4 days. The Increase in survival (106 mg/kg, subcutaneous) was 7.4 days and the “Trypanocidal activity, cures” value (106 mg/kg, subcutaneous) was 3/10.

With `C=CC[n+]1c(-c2ccc(NC(C)=O)cc2)cn2ccccc21` [BJ58296] the Increase in survival (26.5 mg/kg, subcutaneous) was 5.0 days and the “Trypanocidal activity, cures” value (26.5 mg/kg, subcutaneous) was 7/10.

`CC(=O)Nc1ccc(-c2cn3ccc4ccccc4c3[n+]2C)cc1` [BJ83235] was tested, and the Increase in survival (53 mg/kg, subcutaneous) was 1.7 days, the “Trypanocidal activity, cures” value (53 mg/kg, subcutaneous) was 1/5 and the Increase in survival (212 mg/kg, subcutaneous) was 2.9 days. For the same molecule, the “Trypanocidal activity, cures” value (212 mg/kg, subcutaneous) was 4/5.

With `CC(=O)Nc1ccc(-c2cn3c4ccccc4ccc3[n+]2C)cc1` [BJ83244] the Increase in survival (212 mg/kg, subcutaneous) was 8.4 days and the “Trypanocidal activity, cures” value (212 mg/kg, subcutaneous) was 3/5.

With `CC(=O)Nc1ccc(-c2cn3cc(I)ccc3[n+]2C)cc1` [BJ83306] the Increase in survival (106 mg/kg, subcutaneous) was 2.3 days, the “Trypanocidal activity, cures” value (106 mg/kg, subcutaneous) was 3/10 and the Increase in survival (212 mg/kg, subcutaneous) was 3.9 days. For the same molecule, the “Trypanocidal activity, cures” value (212 mg/kg, subcutaneous) was 1/5, the Increase in survival (424 mg/kg, subcutaneous) was 6.5 days and the “Trypanocidal activity, cures” value (424 mg/kg, subcutaneous) was 4/10.

For `CC(=O)Nc1ccc(-c2cn3ccccc3[n+]2C)cc1` [BJ83315], the Increase in survival (106 mg/kg, subcutaneous) was 3.7 days, the Increase in survival (212 mg/kg, subcutaneous) was 6.4 days and the “Trypanocidal activity, cures” value (212 mg/kg, subcutaneous) was 3/5. For the same molecule, the Increase in survival (424 mg/kg, subcutaneous) was 2.9 days and the “Trypanocidal activity, cures” value (424 mg/kg, subcutaneous) was 9/10.

For `CC(=O)Nc1ccc(-c2cn3cc(C)ccc3[n+]2C)cc1` [BJ84938], the Increase in survival (106 mg/kg, subcutaneous) was 1.3 days, the “Trypanocidal activity, cures” value (106 mg/kg, subcutaneous) was 1/10 and the Increase in survival (212 mg/kg, subcutaneous) was 5.9 days. The “Trypanocidal activity, cures” value (212 mg/kg, subcutaneous) was 1/5, the Increase in survival (424 mg/kg, subcutaneous) was 8.5 days and the “Trypanocidal activity, cures” value (424 mg/kg, subcutaneous) was 7/10.

With `C[n+]1c(-c2ccc(C(N)=NO)cc2)cn2ccccc21` [BJ84974] the Increase in survival (13.3 mg/kg, subcutaneous) was 3.1 days, the Increase in survival (26.5 mg/kg, subcutaneous) was 1.6 days and the “Trypanocidal activity, cures” value (26.5 mg/kg, subcutaneous) was 2/10. The “Trypanocidal activity, cures” value (53 mg/kg, subcutaneous) was 5/5, the Increase in survival (106 mg/kg, subcutaneous) was 9.9 days and the “Trypanocidal activity, cures” value (106 mg/kg, subcutaneous) was 9/10. The “Trypanocidal activity, cures” value (212 mg/kg, subcutaneous) was 5/5.

In the case of `CC(=O)Nc1ccc(-c2cn3c(C)cc(C)cc3[n+]2C)cc1` [BJ90703], the Increase in survival (26 mg/kg, subcutaneous) is reported as 8.9 days, the “Trypanocidal activity, cures” value (26 mg/kg, subcutaneous) is reported as 1/5 and the Increase in survival (106 mg/kg, subcutaneous) is reported as 2.9 days. The “Trypanocidal activity, cures” value (106 mg/kg, subcutaneous) was 4/5, the Increase in survival (424 mg/kg, subcutaneous) was 9.4 days and the “Trypanocidal activity, cures” value (424 mg/kg, subcutaneous) was 3/5. The Increase in survival [2] was 3.4 days and the “Trypanocidal activity, cures” value [2] was 1/5.

In the case of `C[n+]1c(-c2ccc(C=NO)cc2)cn2ccccc21` [BJ90712], the Increase in survival (106 mg/kg, subcutaneous) is reported as 4.2 days and the “Trypanocidal activity, cures” value (106 mg/kg, subcutaneous) is reported as 2/5.

`C[n+]1c(-c2ccc(C=NNC(N)=S)cc2)cn2ccccc21` [BJ90721] was tested, and the Increase in survival (26 mg/kg, subcutaneous) was 4.4 days, the Increase in survival (53 mg/kg, subcutaneous) was 7.8 days and the “Trypanocidal activity, cures” value (53 mg/kg, subcutaneous) was 1/5. For the same molecule, the Increase in survival (106 mg/kg, subcutaneous) was 7.5 days, the “Trypanocidal activity, cures” value (106 mg/kg, subcutaneous) was 3/5 and the Increase in survival (212 mg/kg, subcutaneous) was 18.0 days. For the same molecule, the “Trypanocidal activity, cures” value (212 mg/kg, subcutaneous) was 4/5, the “Trypanocidal activity, cures” value (424 mg/kg, subcutaneous) was 5/5 and the Increase in survival [2] was 1.9 days. For the same molecule, the “Trypanocidal activity, cures” value [2] was 1/10.

In the case of `C[n+]1c(-c2ccc(C=NNC(N)=O)cc2)cn2ccccc21` [BJ90730], the Increase in survival (26 mg/kg, subcutaneous) is reported as 7.7 days, the “Trypanocidal activity, cures” value (26 mg/kg, subcutaneous) is reported as 1/5 and the Increase in survival (106 mg/kg, subcutaneous) is reported as 10.9 days. For the same molecule, the “Trypanocidal activity, cures” value (106 mg/kg, subcutaneous) was 4/5, the Increase in survival [1] was 1.9 days and the “Trypanocidal activity, cures” value [1] was 1/10. The Increase in survival [2] was 4.8 days and the “Trypanocidal activity, cures” value [2] was 3/10.

With `C[n+]1c(-c2ccc(C=NNC(=N)N)cc2)cn2ccccc21` [BJ90749] the Increase in survival (0.21 mg/kg, subcutaneous) was 2.5 days, the “Trypanocidal activity, cures” value (0.21 mg/kg, subcutaneous) was 1/5 and the Increase in survival (0.42 mg/kg, subcutaneous) was 5.4 days. The “Trypanocidal activity, cures” value (0.42 mg/kg, subcutaneous) was 2/10, the Increase in survival (0.83 mg/kg, subcutaneous) was 6.2 days and the “Trypanocidal activity, cures” value (0.83 mg/kg, subcutaneous) was 8/10. The “Trypanocidal activity, cures” value (1.6 mg/kg, subcutaneous) was 10/10, the “Trypanocidal activity, cures” value (3.3 mg/kg, subcutaneous) was 5/5 and the “Trypanocidal activity, cures” value (6.6 mg/kg, subcutaneous) was 5/5. For the same molecule, the “Activity at dosage, value in parentheses (increase in survival)” value (13 mg/kg, peritoneal (Table 2)) was 4.0 and the “Trypanocidal activity, cures” value (13.3 mg/kg, subcutaneous) was 10/10.

In the case of `COC(=O)c1ccc2n(c1)cc(-c1ccc(NC(C)=O)cc1)[n+]2C` [BJ90758], the Increase in survival (106 mg/kg, subcutaneous) is reported as 4.2 days, the Increase in survival (424 mg/kg, subcutaneous) is reported as 4.2 days and the “Trypanocidal activity, cures” value (424 mg/kg, subcutaneous) is reported as 2/10.

With `C[n+]1c(-c2ccc(C=NNc3ncn[nH]3)cc2)cn2ccsc21` [BK2403S] the Increase in survival (6.65 mg/kg, subcutaneous) was 5.0 days, the “Trypanocidal activity, cures” value (6.65 mg/kg, subcutaneous) was 4/5 and the Increase in survival (13.3 mg/kg, subcutaneous) was 5.0 days. The “Trypanocidal activity, cures” value (13.3 mg/kg, subcutaneous) was 6/10, the Increase in survival (26.5 mg/kg, subcutaneous) was 7.3 days and the “Trypanocidal activity, cures” value (26.5 mg/kg, subcutaneous) was 12/15. For the same molecule, the Increase in survival (53 mg/kg, subcutaneous) was 12.5 days, the “Trypanocidal activity, cures” value (53 mg/kg, subcutaneous) was 3/5 and the Increase in survival (106 mg/kg, subcutaneous) was 7.7 days. For the same molecule, the “Trypanocidal activity, cures” value (106 mg/kg, subcutaneous) was 7/10, the Increase in survival (212 mg/kg, subcutaneous) was 5.0 days and the “Trypanocidal activity, cures” value (212 mg/kg, subcutaneous) was 3/5.
